Laboratory results from patent publication US4428957A, “6-Isothiocyano-5-methoxy-2-tert.-butylbenzthiazole and a method of controlling ruminant liver flukes therewith” (Ciba-Geigy Corporation, priority 1978, dated 1984).
Like-named read-outs stand apart in the source and are kept apart here.

Key:
[1] = Compatibility in the case of the sheep; conditions: in vivo; for MTD at 336 h: single dose into the rumen, 14 days observation, read-out: MTD (maximum tolerated dose)
Experimental: (§1) The active substances are introduced in the form of a suspension, by means of a stomach probe or by injection, into the rumen of the experimental animals. Three to five sheep are used per test and per dose, each animal being treated with just one single dose. The sheep are kept under observation during 14 days after the treatment, and they are weighed at regular intervals. Any clinical symptoms and cases of death occurring are recorded during this period. Similar sheep (with regard to breed, age and weight) which have not been treated with the respective active substance are kept as control animals together with the treated experimental animals. The same parameters are recorded in the case of the control sheep as in the case of the treated sheep. The minimum effective dose (MED) of 25 mg/kg (see Table) in the case of the compound of formula I is effective in sheep not only against Fasciola hepatica but also against nematodes such as Haemonchus concortus, Trichostrongylus colubriformis and Ostertagia circumcincta, and against cestodes such as Moniezia benedeni.

Fasciola hepatica = assay: Test on sheep infested with Fasciola hepatica; type: in vivo, Fasciola hepatica (host: sheep); conditions: for minimal effective dose: Fasciola hepatica
Text: The active substance is introduced in the form of a suspension, by means of a stomach probe or by injection, into the rumen of sheep which have been artificially infested with Fasciola hepatica. Three animals are used per test and per dose, each animal being treated with just one single dose. An initial evaluation is made by comparing the numbers of worm eggs excreted in the droppings of the sheep before and after the treatment. The sheep are killed and dissected three to four weeks after the treatment. The second evaluation is on the basis of a count of the liver flukes which have remained behind in the hepatic ducts after the treatment. Simultaneously and similarly infested but untreated sheep are used as a control or comparison. The difference in the numbers of liver flukes in the two groups is a measure of the degree of effectiveness of the active substance tested.
as §1

[2] = system: Trichostrongylus colubriformis; assay: Test on sheep infected with nematodes: Trichostrongylus colubriformis; type: in vivo, Trichostrongylus colubriformis (host: sheep); conditions: read-out: minimum effective dose (MED), effective also against Trichostrongylus colubriformis
Text: (§2) The active substance is introduced in the form of a suspension by means of a stomach probe, or by injection, into the rumen of sheep which have been artificially infested with nematodes such as Haemonchus controtus and Trichostrongylus colubriformis. Three animals are used per test and per dose, each sheep being treated with just one single dose. An initial evaluation is made by comparing the numbers of worm eggs excreted in the dropping of the sheep before and after the treatment. Seven to ten days after the treatment, the sheep are killed and dissected. A second evaluation is then made by carrying out a count of the worm which have remained behind in the intestine after the treatment. Sheep which have been simultaneously and similarly infested but not treated with the active substance are used as a control or comparison.

Brugia pahangi = assay: filariasis: Brugia pahangi in multimammate rats; type: in vivo, Brugia pahangi (host: multimammate rats)
Brugia malayi = assay: filariasis: Brugia malayi in multimammate rats; type: in vivo, Brugia malayi (host: multimammate rats)
Ostertagia circumcincta = assay: Test on sheep infected with nematodes: Ostertagia circumcincta; type: in vivo, Ostertagia circumcincta (host: sheep); conditions: Teladorsagia circumcincta, read-out: minimum effective dose (MED), effective also against Ostertagia circumcincta
Text: as §2

Litomosoides carinii = assay: filariasis: Litomosoides carinii in Mongolian jirds and multimammate rats; type: in vivo
[3] = system: parasitic helminths, especially Nematodes and Trematodes; assay: anthelmintic activity against parasitic helminths, various test models; type: in vivo
Moniezia benedeni = assay: Test on sheep infested with cestodes: Moniezia benedeni; type: in vivo, Moniezia benedeni (host: sheep); conditions: read-out: minimum effective dose (MED), effective also against Moniezia benedeni
Text: The active substance is introduced in the form of a suspension, by means of a stomach probe or by injection, into the rumen of sheep which are infested with cestodes such as Moniezia benedeni. Three animals are used per test and per dose, each sheep being treated with just one single dose. The sheep are killed and dissected seven to ten days after the treatment. The evaluation is made on the basis of a count of the worms which have remained behind in the intestine after the treatment. Sheep which have been simultaneously and similarly infested but not treated with the active substance are used as a control or comparison.

Schistosoma japonicum = assay: schistosomiasis: Schistosoma japonicum in dogs; type: in vivo, Schistosoma japonicum (host: dogs)
Haemonchus contortus = assay: Test on sheep infected with nematodes: Haemonchus contortus; type: in vivo, Haemonchus contortus (host: sheep); conditions: read-out: minimum effective dose (MED), effective also against Haemonchus concortus
Text: as §2

Nipprostrongylus species = assay: gastro-intestinal helminths: tests with various Nipprostrongylus species; type: in vivo; conditions: compound and its non-toxic salts
Dipetalonea viteae = assay: filariasis: Dipetalonea viteae in Mongolian jirds and multimammate rats; type: in vivo
Schistosoma mansoni = assay: schistosomiasis: Schistosoma mansoni in mice and Syrian hamsters; type: in vivo, Schistosoma mansoni (host: mice and Syrian hamsters)
[4] = read-out: MED (minimum effective dose)

SMILES: CC(C)(C)c1nc2ccc(N=C=S)cc2s1 [No. 2, reference compound]
- MTD at 336 h [1]: 200 mg/kg
- minimal effective dose (Fasciola hepatica; [4]): 100 mg/kg

SMILES: COc1cc2nc(C(C)C)sc2cc1N=C=S [No. 3, reference compound]
- MTD at 336 h [1]: 200 mg/kg
- minimal effective dose (Fasciola hepatica; [4]): > 100 mg/kg

SMILES: CC(C)c1nc2ccc(N=C=S)cc2s1 [No. 4, reference compound]
- MTD at 336 h [1]: 200 mg/kg
- minimal effective dose (Fasciola hepatica; [4]): > 200 mg/kg

SMILES: COc1cc2nc(C(C)(C)C)sc2cc1N=C=S [compound of the formula I, 6-isothiocyano-5-methoxy-2-tert.-butyl-benzothiazole]
- minimal effective dose [2]: 25 mg/kg
- selectivity ratio ([1]; liver flukes, read-out: therapeutic index (maximum tolerated dose/minimum effective dose)): ~13
- MTD at 336 h [1]: 320 mg/kg
- potency against filariasis, micro- and macrofilariae (Brugia pahangi): pronounced potency
- minimal effective dose (Fasciola hepatica; [4]): 25 mg/kg
- action against liver flukes in sheep (Fasciola hepatica; sheep): excellent action against liver flukes in sheep
- minimal effective dose (Fasciola hepatica; sheep, read-out: minimum effective dose (MED)): 25 mg/kg
- potency against filariasis, micro- and macrofilariae (Brugia malayi): pronounced potency
- minimal effective dose (Ostertagia circumcincta): 25 mg/kg
- potency against filariasis, micro- and macrofilariae (Litomosoides carinii): pronounced potency
- anthelmintic properties ([3]; general): generally good anthelmintic properties
- activity against filariasis, schistosomiasis and gastro-intestinal helminths ([3]; various test models): excellent activity
- anthelminthic activities against a broad variety of parasitic helminths ([3]; warm-blooded organisms, compound and non-toxic salts): extremely potent anthelminthic activities
- minimal effective dose (Moniezia benedeni): 25 mg/kg
- antischistosomal effects (Schistosoma japonicum): pronounced antischistosomal effects
- minimal effective dose (Haemonchus contortus): 25 mg/kg
- properties against gastro-intestinal helminths (Nipprostrongylus species): surprising properties against gastro-intestinal helminths
- potency against filariasis, micro- and macrofilariae (Dipetalonea viteae): pronounced potency
- antischistosomal effects (Schistosoma mansoni): pronounced antischistosomal effects
